As a reminder, the IC50 is the concentration that gives 50% inhibition.

The target of assay [1] is T1, recombinant human KDM4A (Homo sapiens, UniProt O75164).
T1 construct: made in house
T1 sequence (O75164 1-359 limits assumed): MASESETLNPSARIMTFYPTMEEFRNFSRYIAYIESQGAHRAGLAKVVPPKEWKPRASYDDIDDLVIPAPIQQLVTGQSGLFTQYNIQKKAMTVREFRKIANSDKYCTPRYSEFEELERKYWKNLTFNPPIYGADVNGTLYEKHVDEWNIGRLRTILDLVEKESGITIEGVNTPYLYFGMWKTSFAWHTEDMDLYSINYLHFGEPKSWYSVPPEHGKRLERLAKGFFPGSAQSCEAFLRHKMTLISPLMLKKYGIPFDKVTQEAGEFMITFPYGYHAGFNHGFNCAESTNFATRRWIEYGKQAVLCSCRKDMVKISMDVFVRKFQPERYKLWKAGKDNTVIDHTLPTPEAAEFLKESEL
The experiment in a line: 14CO2 capture enzymatic assay (decarboxylation of [1-14C] αKG), KDM4A. The assay is classed as biochemical. The conditions noted are these: 10 μM [1-14C] αKG, 90 μM non-labeled αKG, 50 μM peptide substrate, 37° C., 1 hour, final 1% DMSO. The method in brief:
(§1)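 Truncated recombinant human KDM5B (H3K4me3 peptide) or KDM4A (H3K9me3 peptide), 50 μM peptide, with 10 μM [1-14C]αKG plus 90 μM unlabeled αKG, 10 μM Fe(SO4), 2 mM ascorbate in pH 7.4 HEPES, 1 h at 37 °C, 1% DMSO. Released 14CO2 trapped on Ba(OH)2 filter; IC50 by non-linear fit.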

Assay [2] deals with T2, recombinant human KDM5B (Homo sapiens, UniProt Q9UGL1).
T2 sequence (Q9UGL1 374-755 limits assumed): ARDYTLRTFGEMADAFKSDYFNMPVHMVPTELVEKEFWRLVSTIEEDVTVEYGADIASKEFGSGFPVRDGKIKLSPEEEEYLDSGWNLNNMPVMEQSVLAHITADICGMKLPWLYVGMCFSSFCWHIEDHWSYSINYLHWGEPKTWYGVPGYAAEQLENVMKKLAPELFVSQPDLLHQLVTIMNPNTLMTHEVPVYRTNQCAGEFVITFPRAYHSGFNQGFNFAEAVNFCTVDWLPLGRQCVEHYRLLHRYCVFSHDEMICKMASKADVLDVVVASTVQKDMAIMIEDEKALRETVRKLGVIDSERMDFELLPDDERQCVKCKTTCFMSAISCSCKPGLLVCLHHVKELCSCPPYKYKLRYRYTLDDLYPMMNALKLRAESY
Put plainly: 14CO2 capture enzymatic assay (decarboxylation of [1-14C] αKG), KDM5B. The class given is biochemical. Particulars: 10 μM [1-14C] αKG, 90 μM non-labeled αKG, 50 μM peptide substrate, 37° C., 1 hour, final 1% DMSO. The method in brief:
as §1

In the case of `N#Cc1cc(-c2cccc(-c3ccccc3)c2)nc(C(=O)CCC(=O)O)c1O` [Example 74, 4-(6-Biphenyl-3-yl-4-cyano-3-hydroxy-pyridin-2-yl)-4-oxo-butyric acid], the IC50 in assay [1] was over 40000 nM; in assay [2], 60 nM.

On to `Cc1cccc(C)c1C(=O)Nc1cc(C#N)c(O)c(C(=O)CCC(=O)O)n1` [Example 129, 4-[4-Cyano-6-(2,6-dimethyl-benzoylamino)-3-hydroxy-pyridin-2-yl]-4-oxo-butyric acid], for which the IC50 is over 40000 nM in assay [1] and 560 nM in assay [2].

Take `N#Cc1cc(Cc2c(F)cc(F)cc2F)nc(C(=O)CCC(=O)O)c1O` [Example 55, 4-[4-Cyano-3-hydroxy-6-(2,4,6-trifluoro-benzyl)-pyridin-2-yl]-4-oxo-butyric acid]: the figures for the concentration for half-maximal inhibition (IC50) in assay [1] and in assay [2] were 34000 nM and 220 nM, respectively.

Regarding `COc1cccc(C(F)(F)F)c1Cc1cc(C#N)c(O)c(C(=O)CCC(=O)O)n1` [Example 61, 4-[4-Cyano-3-hydroxy-6-(2-methoxy-6-trifluoromethyl-benzyl)-pyridin-2-yl]-4-oxo-butyric acid], the concentration for half-maximal inhibition (IC50) is over 40000 nM in assay [1] and 570 nM in assay [2].

As for `N#Cc1ccc(C(F)(F)F)cc1-c1cc(C#N)c(O)c(C(=O)CCC(=O)O)n1` [Example 105, 4-[4-Cyano-6-(2-cyano-5-trifluoromethyl-phenyl)-3-hydroxy-pyridin-2-yl]-4-oxo-butyric acid], the IC50 in assay [1] was over 40000 nM; in assay [2] it was 420 nM.

As for `N#Cc1cc(Cc2c(F)cccc2F)nc(C(=O)CCC(=O)O)c1O` [Example 53, 4-[4-Cyano-6-(2,6-difluoro-benzyl)-3-hydroxy-pyridin-2-yl]-4-oxo-butyric acid], the IC50 in assay [1] was over 40000 nM; in assay [2] it was 250 nM.

As for `N#Cc1cc(Cc2c(Cl)ccc(F)c2Cl)nc(C(=O)CCC(=O)O)c1O` [Example 149, 4-[4-Cyano-6-(2,6-dichloro-3-fluoro-benzyl)-3-hydroxy-pyridin-2-yl]-4-oxo-butyric acid], the IC50 came to 3700 nM in assay [1] and 70 nM in assay [2].

As for `N#Cc1cc(Oc2cccc(Cl)c2)cc(C(=O)CCC(=O)O)c1O` [Example 138, 4-[5-(3-Chloro-phenoxy)-3-cyano-2-hydroxy-phenyl]-4-oxo-butyric acid], the IC50 in assay [1] is over 40000 nM; in assay [2], 390 nM.

Turning to `Cc1cccc(F)c1-c1cc(C#N)c(O)c(C(=O)CCC(=O)O)n1` [Example 88, 4-[4-Cyano-6-(2-fluoro-6-methyl-phenyl)-3-hydroxy-pyridin-2-yl]-4-oxo-butyric acid], the IC50 in assay [1] was over 40000 nM; in assay [2], 710 nM.

Take `Cc1cccc(C)c1C(=O)N(C)c1cc(C#N)c(O)c(C(=O)CCC(=O)O)n1` [Example 130, 4-{4-Cyano-6-[(2,6-dimethyl-benzoyl)-N-methyl-amino]-3-hydroxy-pyridin-2-yl}-4-oxo-butyric acid]: the figures for the IC50 in assay [1] and in assay [2] were over 40000 nM and 3200 nM, respectively.

Take `N#Cc1cc(Cc2c(F)ccc(F)c2F)nc(C(=O)CCC(=O)O)c1O` [Example 57, 4-[4-Cyano-3-hydroxy-6-(2,3,6-trifluoro-benzyl)-pyridin-2-yl]-4-oxo-butyric acid]: the IC50 was determined as 28000 nM in assay [1] and 270 nM in assay [2].

As to `Cc1cc(Cl)ccc1-c1cc(C#N)c(O)c(C(=O)CCC(=O)O)n1` [Example 90, 4-[6-(4-Chloro-2-methyl-phenyl)-4-cyano-3-hydroxy-pyridin-2-yl]-4-oxo-butyric acid], the 50% inhibitory concentration (IC50) was over 40000 nM in assay [1] and 250 nM in assay [2].

As for `Cc1ccc(F)cc1-c1cc(C#N)c(O)c(C(=O)CCC(=O)O)n1` [Example 82, 4-[4-Cyano-6-(5-fluoro-2-methyl-phenyl)-3-hydroxy-pyridin-2-yl]-4-oxo-butyric acid], the IC50 in assay [1] is over 40000 nM; in assay [2], 350 nM.

As for `N#Cc1cc(-c2cccc(F)c2Cl)nc(C(=O)CCC(=O)O)c1O` [Example 107, 4-[6-(2-Chloro-3-fluoro-phenyl)-4-cyano-3-hydroxy-pyridin-2-yl]-4-oxo-butyric acid], the concentration for half-maximal inhibition (IC50) was over 40000 nM in assay [1] and 320 nM in assay [2].

For the molecule `N#Cc1cc(C(F)(F)F)c(O)c(C(=O)CCC(=O)O)n1` [Example 8, 4-(6-Cyano-3-hydroxy-4-trifluoromethyl-pyridin-2-yl)-4-oxo-butyric acid], the values for the 50% inhibitory concentration (IC50) in assay [1] and in assay [2] were 13000 nM and 270 nM, respectively.

Take `Cc1ccc(-c2cc(C#N)c(O)c(C(=O)CCC(=O)O)n2)cc1` [Example 73, 4-(4-Cyano-3-hydroxy-6-p-tolyl-pyridin-2-yl)-4-oxo-butyric acid]: the 50% inhibitory concentration (IC50) is over 40000 nM in assay [1] and 110 nM in assay [2].

Turning to `Cc1ccc(Cc2cc(C#N)c(O)c(C(=O)CCC(=O)O)n2)cc1` [Example 38, 4-[4-Cyano-3-hydroxy-6-(4-methyl-benzyl)-pyridin-2-yl]-4-oxo-butyric acid], the half-inhibitory concentration (IC50) was over 40000 nM in assay [1] and 120 nM in assay [2].

In the case of `CCc1ccccc1-c1cc(C#N)c(O)c(C(=O)CCC(=O)O)n1` [Example 85, 4-[4-Cyano-6-(2-ethyl-phenyl)-3-hydroxy-pyridin-2-yl]-4-oxo-butyric acid], the IC50 in assay [1] is over 40000 nM; in assay [2] it was 450 nM.

For `N#Cc1cc(-c2cccc3ccccc23)nc(C(=O)CCC(=O)O)c1O` [Example 68, 4-(4-Cyano-3-hydroxy-6-naphthalen-1-yl-pyridin-2-yl)-4-oxo-butyric acid], the half-maximal inhibitory concentration (IC50) is over 40000 nM in assay [1] and 280 nM in assay [2].

For the molecule `N#Cc1cc(Cc2c(F)cccc2Cl)nc(C(=O)CCC(=O)O)c1O` [Example 30, 4-[6-(2-Chloro-6-fluoro-benzyl)-4-cyano-3-hydroxy-pyridin-2-yl]-4-oxo-butyric acid], the IC50 turned out to be 17000 nM in assay [1] and 250 nM in assay [2].

Regarding `N#Cc1cc(Cc2cccc3ccccc23)nc(C(=O)CCC(=O)O)c1O` [Example 34, 4-(4-Cyano-3-hydroxy-6-naphthalen-1-ylmethyl-pyridin-2-yl)-4-oxo-butyric acid], the half-inhibitory concentration (IC50) in assay [1] is 12000 nM; in assay [2], 60 nM.

Regarding `N#Cc1cc(-c2ccc3ccccc3c2)nc(C(=O)CCC(=O)O)c1O` [Example 77, 4-(4-Cyano-3-hydroxy-6-naphthalen-2-yl-pyridin-2-yl)-4-oxo-butyric acid], the IC50 in assay [1] stood at 12000 nM; in assay [2], 40 nM.

Regarding `Cc1ccc(C(F)(F)F)cc1-c1cc(C#N)c(O)c(C(=O)CCC(=O)O)n1` [Example 97, 4-[4-Cyano-3-hydroxy-6-(2-methyl-5-trifluoromethyl-phenyl)-pyridin-2-yl]-4-oxo-butyric acid], the IC50 in assay [1] is over 40000 nM; in assay [2] it was 300 nM.

Regarding `N#Cc1cc(Cc2ccc(-c3ccccc3)cc2)nc(C(=O)CCC(=O)O)c1O` [Example 50, 4-(6-Biphenyl-4-ylmethyl-4-cyano-3-hydroxy-pyridin-2-yl)-4-oxo-butyric acid], the results for the IC50 in assay [1] and in assay [2] were over 40000 nM and 390 nM, respectively.

With `N#Cc1cc(Cc2ccccc2C(F)(F)F)nc(C(=O)CCC(=O)O)c1O` [Example 41, 4-[4-Cyano-3-hydroxy-6-(2-trifluoromethyl-benzyl)-pyridin-2-yl]-4-oxo-butyric acid], the 50% inhibitory concentration (IC50) in assay [1] came to 22000 nM; in assay [2], 150 nM.

Regarding `O=C(O)CCC(=O)c1nc(C(F)(F)F)cc(C(F)(F)F)c1O` [Example 4, 4-(3-Hydroxy-4,6-bis-trifluoromethyl-pyridin-2-yl)-4-oxo-butyric acid], the half-maximal inhibitory concentration (IC50) came out at 3500 nM in assay [1] and 230 nM in assay [2].

Consider `CN(C(=O)c1ccccc1)c1cc(C#N)c(O)c(C(=O)CCC(=O)O)n1` [Example 159, 4-[6-(Benzoyl-N-methyl-amino)-4-cyano-3-hydroxy-pyridin-2-yl]-4-oxo-butyric acid], for which the figures for the IC50 in assay [1] and in assay [2] were over 40000 nM and 990 nM, respectively.

As to `N#Cc1cc(Oc2ccccc2Cl)cc(C(=O)CCC(=O)O)c1O` [Example 136, 4-[5-(2-Chloro-phenoxy)-3-cyano-2-hydroxy-phenyl]-4-oxo-butyric acid], the concentration for half-maximal inhibition (IC50) in assay [1] was over 40000 nM; in assay [2], 370 nM.

Regarding `Cc1cc(Cl)c(Cc2cc(C#N)c(O)c(C(=O)CCC(=O)O)n2)c(Cl)c1` [Example 127, 4-[4-Cyano-6-(2,6-dichloro-4-methyl-benzyl)-3-hydroxy-pyridin-2-yl]-4-oxo-butyric acid], the half-inhibitory concentration (IC50) is over 40000 nM in assay [1] and 60 nM in assay [2].

In the case of `N#Cc1cc(Cc2cccc(Cl)c2)nc(C(=O)CCC(=O)O)c1O` [Example 18, 4-[6-(3-Chloro-benzyl)-4-cyano-3-hydroxy-pyridin-2-yl]-4-oxo-butyric acid], the 50% inhibitory concentration (IC50) in assay [1] was over 40000 nM; in assay [2], 100 nM.

Source of the values: US20240002344A1, “COMPOUNDS, COMPOSITIONS AND METHODS FOR HISTONE LYSINE DEMETHYLASE INHIBITION” (FibroGen, Inc., priority 2020, published 2024).
